# Results reported in PubChem BioAssay (NCI).
# “And” between values parts separate entries of the source, which are not always exact repeats. Identical values can stand only once.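 Each compound was tested at five concentrations against cells in 96-well plates for 48 hours. TGI is the concentration that stops growth completely.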
# Experiments:
# Assay in all cases: NCI-60 cell line screen, 48 h
# 786-0 renal = test system: 786-0 renal
# A498 renal = test system: A498 renal
# HCT-116 colon = test system: HCT-116 colon
# HCT-15 colon = test system: HCT-15 colon
# HT29 colon = test system: HT29 colon
# IGROV1 ovarian = test system: IGROV1 ovarian
# LOX IMVI melanoma = test system: LOX IMVI melanoma
# NCI-H226 lung = test system: NCI-H226 lung
# NCI-H23 lung = test system: NCI-H23 lung
# NCI-H522 lung = test system: NCI-H522 lung
# OVCAR-3 ovarian = test system: OVCAR-3 ovarian
# OVCAR-8 ovarian = test system: OVCAR-8 ovarian
# RXF 393 renal = test system: RXF 393 renal
# TK-10 renal = test system: TK-10 renal
# U251 CNS = test system: U251 CNS
# HOP-92 NSCLC = test system: HOP-92 NSCLC
# RPMI-8226 leukemia = test system: RPMI-8226 leukemia
# SR leukemia = test system: SR leukemia
Structure (SMILES),TGI (786-0 renal),TGI (A498 renal),TGI (HCT-116 colon),TGI (HCT-15 colon),TGI (HT29 colon),TGI (IGROV1 ovarian),TGI (LOX IMVI melanoma),TGI (NCI-H226 lung),TGI (NCI-H23 lung),TGI (NCI-H522 lung),TGI (OVCAR-3 ovarian),TGI (OVCAR-8 ovarian),TGI (RXF 393 renal) [µM],TGI (TK-10 renal),TGI (U251 CNS),TGI (HOP-92 NSCLC) [µM],TGI (RPMI-8226 leukemia),TGI (SR leukemia)
CCOC(=O)[C@H]1Nc2ccc(Cl)cc2[C@H]2OCC[C@@H]12,> 100 µM,> 100 µM,> 100 µM,> 100 µM,> 100 µM,> 100 µM,> 100 µM,> 100 µM,> 100 µM,> 100 µM,> 100 µM,> 100 µM,> 100,> 100 µM,> 100 µM,,,
O=C(Cc1ccccc1)NNc1nc(NNC(=O)c2ccncc2)nc(Nc2ccccc2)n1,> 10 µM,,,> 10 µM,> 10 µM,> 10 µM,> 10 µM,,,,,> 10 µM,,> 10 µM,> 10 µM,> 10,> 10 µM,> 10 µM
Cc1ccc(CC2(OCCN(C)C)CCC(C(C)(C)C)CC2)cc1 (configuration not stated),4.45 µM and 3.7 µM,28.6 µM and 27.1 µM,6.73 µM and 6.24 µM,14.9 µM and 15.4 µM,5.15 µM and 5.9 µM,19.4 µM and 21.5 µM,3 µM and 3.97 µM,15.6 µM and 15.4 µM,25.6 µM and 24.4 µM,9.28 µM and 10.8 µM,25.8 µM and 27.2 µM,16.1 µM and 24.1 µM,,17.2 µM and 19.6 µM,6.39 µM and 10.2 µM,,4 µM and 4.96 µM,4.67 µM and 5.58 µM
COc1ccc(C2=Nn3c(nc4sc(-c5ccccc5)cc4c3=O)SC2)cc1,> 100 µM,> 100 µM,> 100 µM,> 100 µM,> 100 µM,> 100 µM,> 100 µM,> 100 µM,> 100 µM,> 100 µM,> 100 µM,> 100 µM,,> 100 µM,> 100 µM,> 100,> 100 µM,> 100 µM
CC(C)C1SCc2nc3ccccc3n21 (configuration not stated),> 100 µM,83.3 µM,> 100 µM,> 100 µM,> 100 µM,> 100 µM,> 100 µM,0.96 µM,> 100 µM,> 100 µM,> 100 µM,> 100 µM,> 100,> 100 µM,> 100 µM,> 100,> 100 µM,
O=C1Oc2ccccc2C(=O)/C1=C/N1C(=O)N/C(=C\c2cccc(O)c2)C1=O,> 100 µM,,> 100 µM,> 100 µM,> 100 µM,> 100 µM,> 100 µM,> 100 µM,> 100 µM,,> 100 µM,> 100 µM,,> 100 µM,> 100 µM,> 100,,
NC1=CN(Cc2ccccc2)C2=N/C(=C\c3ccccc3)C(=O)N12,> 100 µM,> 100 µM,> 100 µM,> 100 µM,> 100 µM,> 100 µM,> 100 µM,> 100 µM,> 100 µM,> 100 µM,> 100 µM,> 100 µM,> 100,> 100 µM,> 100 µM,> 100,> 100 µM,
COc1ccc2oc(=O)c3c(c2c1C)OC(C)(C)C=C3,> 100 µM,> 100 µM,> 100 µM,> 100 µM,> 100 µM,> 100 µM,> 100 µM,> 100 µM,> 100 µM,> 100 µM,> 100 µM,> 100 µM,,> 100 µM,> 100 µM,,> 100 µM,> 100 µM
